Experiments:
[1] = system: NLRP3 inflammasome (IL-1β production in THP-1 cells); assay: IL-1β TR-FRET Assay (percentage of inhibition at 300 nM, 6 μM or 10 μM); assay type: cell-based, human; conditions: Homo sapiens, LPS priming, ATP activation; for inhibition at 0.3 µM: THP-1, 300 nM, read-out: IL-1β inhibitory rate at 300 nM (%); for inhibition at 6 µM: THP-1, 6 μM, read-out: IL-1β inhibitory rate at 6 μM (%)
In short: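 Percent inhibition of IL-1β used DMSO wells as 0% and 3 μM MCC-950 wells as full inhibition, with supernatant read by HTRF. Beforehand, IFN-γ-differentiated (25 ng/mL, 24 h), LPS-primed (50 ng/mL, 24 h) THP-1 cells received compound 30 min before inflammasome activation by 20 mM ATP for 2 h.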

[2] = system: TNF-α (NF-κB pathway, THP-1 cells); assay: TNF-α Assay (IC50); assay type: cell-based, human; conditions: Homo sapiens, 600 ng/mL LPS, 3 hours
In short: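 Supernatant TNF-α quantified by ELISA after 3 h stimulation with 600 ng/mL LPS at 37 °C, following 30 min compound preincubation. Cells: IFN-differentiated (25 ng/mL, 24 h) THP-1 macrophages, 40,000/well, serum-free. IC50 by sigmoidal fit of % inhibition, with TPCA-1 as 100% control.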

Row | Structure (SMILES) | IC50 [2] | inhibition at 0.3 µM [1] | inhibition at 6 µM [1] | inhibition at 10 µM ([1]; THP-1, 10 μM, read-out: IL-1β inhibitory rate at 10 μM (%))
1 | COC(C)c1nc2nn(-c3c(C)cc(C)cc3O)cc2c(=O)[nH]1 (centres unmarked) [Example 52, 2-(2-hydroxy-4,6-dimethylphenyl)-6-(1-methoxyethyl)-2,5-dihydro-4H-pyrazolo[3,4-d]pyrimidin-4-one] | > 30 µM | 95% | – | –
2 | Cc1cc(C)c(-n2cc3c(=O)[nH]c(-c4ccccc4Cl)nc3n2)c(O)c1 [Example 45, 6-(2-chlorophenyl)-2-(2-hydroxy-4,6-dimethylphenyl)-2,5-dihydro-4H-pyrazolo[3,4-d]pyrimidin-4-one] | > 30 µM | 100% | – | –
3 | CCOc1nc2nn(-c3c(C)ccc(CC)c3O)cc2c(=O)[nH]1 [Example 72, 6-ethoxy-2-(3-ethyl-2-hydroxy-6-methylphenyl)-2,5-dihydro-4H-pyrazolo[3,4-d]pyrimidin-4-one] | > 30 µM | 94% | – | –
4 | COCc1nc2nn(-c3c(C)ccc(C)c3O)cc2c(=O)[nH]1 [Example 53, 2-(2-hydroxy-3,6-dimethylphenyl)-6-(methoxymethyl)-2,5-dihydro-4H-pyrazolo[3,4-d]pyrimidin-4-one] | > 30 µM | 95% | – | –
5 | CCOc1nc2nn(-c3c(F)cc(C)cc3Cl)cc2c(=O)[nH]1 [Example 135, 2-(2-chloro-6-fluoro-4-methylphenyl)-6-ethoxy-2,5-dihydro-4H-pyrazolo[3,4-d]pyrimidin-4-one] | > 30 µM | 98% | – | –
6 | COCCc1nc2nn(-c3c(C)cc(C)cc3O)cc2c(=O)[nH]1 [Example 38, 2-(2-hydroxy-4,6-dimethylphenyl)-6-(2-methoxyethyl)-2,5-dihydro-4H-pyrazolo[3,4-d]pyrimidin-4-one] | > 30 µM | 100% | – | –
7 | CCOc1nc2nn(-c3c(C)cc(C4CC4)cc3F)cc2c(=O)[nH]1 [Example 39, 2-(4-cyclopropyl-2-fluoro-6-methylphenyl)-6-ethoxy-2,5-dihydro-4H-pyrazolo[3,4-d]pyrimidin-4-one] | > 30 µM | 100% | – | –

Now from value to molecule, other results behind:

Row | IC50 [2] | Structure (SMILES) | inhibition at 0.3 µM [1] | inhibition at 6 µM [1] | inhibition at 10 µM ([1]; THP-1, 10 μM, read-out: IL-1β inhibitory rate at 10 μM (%))
8 | > 30 µM | CO[C@H](C)COc1nc2nn(-c3c(F)cc(C4CC4)cc3C(F)F)cc2c(=O)[nH]1 [Example 200, 2-[4-cyclopropyl-2-(difluoromethyl)-6-fluorophenyl]-6-[(2R)-2-methoxypropoxy]-2,5-dihydro-4H-pyrazolo[3,4-d]pyrimidin-4-one] | 98% | – | –
9 | > 30 µM | CCOc1nc2nn(-c3c(C)cc(C4CC4)cc3C(F)F)cc2c(=O)[nH]1 [Example 216, 2-[4-cyclopropyl-2-(difluoromethyl)-6-methylphenyl]-6-ethoxy-2,5-dihydro-4H-pyrazo lo[3,4-d]pyrimidin-4-one] | 104% | – | –
10 | > 30 µM | Cc1cc(C2CC2)cc(C)c1-n1cc2c(=O)[nH]c([C@@]3(F)CCCOC3)nc2n1 [Example 260, 2-(4-cyclopropyl-2,6-dimethylphenyl)-6-(3-fluorooxan-3-yl)-2,5-dihydro-4H-pyrazolo[3,4-d]pyrimidin-4-one] | – | 96% | –
11 | > 30 µM | COC1(c2nc3nn(-c4c(C)cc(C5CC5)cc4C)cc3c(=O)[nH]2)CCC1 [Example 277, 2-(4-cyclopropyl-2,6-dimethylphenyl)-6-(1-methoxycyclobutyl)-2,5-dihydro-4H-pyrazolo[3,4-d]pyrimidin-4-one] | – | 96% | –
12 | > 30 µM | CCOc1nc2nn(-c3c(C)cc(-n4cccn4)cc3C)cc2c(=O)[nH]1 [Example 139, 2-[2,6-dimethyl-4-(1H-pyrazol-1-yl)phenyl]-6-ethoxy-2,5-dihydro-4H-pyrazolo[3,4-d]pyrimidin-4-one] | – | – | 95%
13 | > 30 µM | Cc1nc(-c2nc3nn(-c4c(C)cc(C5CC5)cc4C)cc3c(=O)[nH]2)co1 [Example 272, 2-(4-cyclopropyl-2,6-dimethylphenyl)-6-(2-methyl-1,3-oxazol-4-yl)-2,5-dihydro-4H-pyrazolo[3,4-d]pyrimidin-4-one] | – | 95% | –

Reference: patent publication US20260297092A1, “PYRAZOLOPYRIMIDINE DERIVATIVES AS INHIBITORS OF NLRP3” (Takeda Pharmaceutical Company Limited, priority 2023, published 2026)
